pKd: −log10 of the molar value. Entries after “also recorded” stand apart in the source; their conditions may differ.
Assays:
AbeH [1] = target: T1, AbeH (uncultured bacterium, UniProt F6LWA5); assay: In vitro halogenation of Trp by AbeH, 1 h reaction, RP-HPLC/MS; type: biochemical, uncultured soil actinomycetes
Procedure: In vitro halogenation reactions contained 7 μM AbeH, 13 μM holo-AbeF (∼20% saturated with FAD), 2.5 mM NADH, 0.5 mM Trp, 50 mM NaCl or NaBr in 10 mM Tris-HCl pH 8.2 in a final volume of 100 μL. Reactions were initiated by addition of NADH and incubated with 200 rpm shaking at 37 °C for 1 h. Reactions were stopped by heating to 95 °C for 10 min followed by centrifugation at 10,000g for 5 min. Reaction mixtures were analyzed by RP-HPLC using a Kromasil C18 RP-analytical column (100 Å pore size, 4.6 × 250 mm) mounted on a Waters 2695 HPLC. Separation used a 14 min gradient from 5% B to 100% B (Solvent A = H2O/CH3CN 95:5, 0.1% TFA; Solvent B = H2O/CH3CN 5/95, 0.1% TFA) with flow rate 0.6 mL/min. Trp, 5-Cl-Trp, and 5-Br-Trp peaks were monitored with absorbance at 280 nm and retention times and yields were analyzed with using retention times and peak areas from standard curves of authentic standards of Trp (ACROS Organics), 5-Cl-Trp (Santa Cruz Biotechnology) and 5-Br-Trp (Santa Cruz Biotechnology). RP-HPLC purified 5-Cl-Trp and 5-Br-Trp peaks from in vitro halogenation reactions were analyzed on a Waters SYNAPT HDMS mass spectrometer using positive ion-mode ESI-MS with leucine enkephalin as internal standard.
Figure S2: AbeH chlorinates and brominates Trp in vitro.
In vitro halogenation reactions were performed with […], […], 2.5 mM NADH, 50 mM NaCl or NaBr in 10 mM Tris-HCl pH 8.2 at 37 °C shaking at 200 rpm with final volume of […]. Standards and reactions were analyzed on a Kromasil C18 column (100 Å pore size, 4.6 x 250 mm) mounted on a Waters HPLC using a 14 min gradient from 5% -100% B (Solvent A:5% CH3CN+0.1% TFA; Solvent B:95% CH3CN+0.1% TFA) with flow rate 0.6 mL/min using 90 µL injections. Baseline subtracted peak integration was performed on Empower software (Waters). (A) Trp standard (tR = 10.3 min). (B) 5-Cl-Trp standard (tR =11.3 min). (C) 5-Br-Trp standard (tR = 11.4 min). (D) 60 min AbeH in vitro chlorination reaction of 0.5 mM Trp (tR = 11.3 min, 100% conversion to 5-Cl-Trp). […]

BorH = BorH (uncultured bacterium, UniProt M9QSI0); conditions: previously shown; cited from earlier work
BorH, sequence (M9QSI0 1-529): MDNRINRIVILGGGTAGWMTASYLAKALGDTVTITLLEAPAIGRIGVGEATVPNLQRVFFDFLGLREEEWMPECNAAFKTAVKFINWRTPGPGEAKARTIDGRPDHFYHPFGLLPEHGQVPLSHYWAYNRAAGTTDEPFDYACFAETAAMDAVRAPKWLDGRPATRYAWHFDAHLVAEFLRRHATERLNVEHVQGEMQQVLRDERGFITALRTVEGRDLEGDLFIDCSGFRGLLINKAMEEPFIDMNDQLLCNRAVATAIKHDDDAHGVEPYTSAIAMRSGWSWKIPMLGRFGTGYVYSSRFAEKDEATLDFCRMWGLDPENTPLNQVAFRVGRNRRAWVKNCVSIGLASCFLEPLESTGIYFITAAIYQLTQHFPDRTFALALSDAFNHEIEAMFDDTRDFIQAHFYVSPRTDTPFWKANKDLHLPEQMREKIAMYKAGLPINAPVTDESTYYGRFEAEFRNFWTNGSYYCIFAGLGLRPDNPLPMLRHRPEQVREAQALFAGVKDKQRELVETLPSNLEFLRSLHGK

AbeH [2] = target: T1, AbeH; type: biochemical, uncultured soil actinomycetes; conditions: same reaction conditions
Procedure: To test the ability of BorH and AbeH to chlorinate and brominate other substrates, 100 μL reactions containing 5 μM AbeH or BorH, 10 μM of holo-AbeF or holo-BorF, 100 mM NaCl or NaBr, 2.5 mM NADH, and 0.5 mM substrate in HEPES pH 8.0 were incubated for 12 h at 37 °C with shaking at 230 rpm. The reactions were stopped by heating at 95 °C for 5 min and centrifuged at 12,000g for 5 min. Clarified reaction mixtures were analyzed using RP-HPLC on a Kromasil C18 column (100 Å pore size, 4.6 × 250 mm) mounted on a Waters 2695 HPLC. The gradient was as follows: 0–7.5 min, 5–50% B; 7.5–14 min, 50–100%; 14–25 min, 100% B; 25–40 min 100–5% B with flow rate 0.6 mL/min (Solvent A = H2O/CH3CN 95:5, 0.1% TFA; Solvent B = H2O/CH3CN 5/95, 0.1% TFA). Substrates and products were detected by monitoring UV absorbance at the λmax for each substrate. Product peak fractions were analyzed using ESI-MS on a SYNAPT HDMS mass spectrometer in positive ion mode with leucine enkephalin internal standard.

BorH/Trp = assay: Isothermal titration calorimetry, FAD into BorH preincubated with Trp; type: binding, uncultured soil actinomycetes
Procedure: ITC experiments were performed using a VP-ITC isothermal titration calorimeter (MicroCal) in 20 mM HEPES pH 7.5, 350 mM NaCl, 1 mM ethylenediamine tetraacetic acid (EDTA) and 15% (v/v) glycerol. Solutions of AbeH, BorH, FAD (Chem-Implex), and Trp (Acros Organics) were prepared in the same buffer and degassed under vacuum at 30 °C for 20 min before loading in the syringe or cell. To analyze formation of binary complexes, AbeH or BorH was placed inside the cell, and ligand (FAD or Trp) was injected. For ternary complex titration, one ligand was preincubated with the macromolecule for 30 min at 30 °C to form binary complexes of AbeH/FAD, AbeH/Trp, BorH/FAD, and BorH/Trp before titrating with the second ligand. […] Formation of FADH2 by sodium dithionite was verified using absorbance and fluorescence spectrophotometry.
ITC experiments were performed with reference power set to 10 μcal/s and Milli-Q water in the reference cell. […] Heats of dilution for all titrants were measured by titrating ligand into buffer for binary complex titrations, and by titrating ligand into a solution containing the other ligand but no protein for ternary complex titration. […]
Titrations were analyzed by manually integrating each injection, subtracting the heat of dilution, and carrying out nonlinear least-squares fit of the calorimetric binding data to a one-site model using Origin 7.0 (Origin Lab). […]

BorF = conditions: read-out: KD, flavin binding to BorF; cited from earlier work

T1 sequence (F6LWA5 entry or part of it): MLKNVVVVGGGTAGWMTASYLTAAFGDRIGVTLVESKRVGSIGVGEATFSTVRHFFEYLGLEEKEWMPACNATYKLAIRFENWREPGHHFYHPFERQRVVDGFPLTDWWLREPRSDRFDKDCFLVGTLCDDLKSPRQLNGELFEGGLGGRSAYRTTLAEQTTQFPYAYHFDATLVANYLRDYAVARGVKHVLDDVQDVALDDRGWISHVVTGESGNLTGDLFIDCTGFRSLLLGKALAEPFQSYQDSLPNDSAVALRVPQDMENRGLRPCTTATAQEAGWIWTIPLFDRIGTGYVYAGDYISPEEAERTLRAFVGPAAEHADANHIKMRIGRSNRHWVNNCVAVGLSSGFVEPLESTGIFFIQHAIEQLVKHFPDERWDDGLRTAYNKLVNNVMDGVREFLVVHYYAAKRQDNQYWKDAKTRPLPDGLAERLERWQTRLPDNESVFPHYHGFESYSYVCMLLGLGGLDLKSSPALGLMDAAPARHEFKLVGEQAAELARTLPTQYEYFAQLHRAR

Row | SMILES | Conversion to 5-Br-Trp (AbeH [1]; 60 min AbeH bromination reaction of 0.5 mM Trp, 50 mM NaBr) | Conversion to 5-Cl-Trp (AbeH [1]; 60 min AbeH chlorination reaction of 0.5 mM Trp, 50 mM NaCl) | Product formation by AbeH when NaCl was replaced with NaI (AbeH [1]; NaI) | Halogenation of the substrate by BorH, in words (BorH) | AbeH bromination compared with chlorination of the substrate, in words (AbeH [2]) | Binding of FAD to preincubated BorH/Trp by ITC, in words (BorH/Trp; 0.63 mM FAD into 10 μM BorH preincubated with 18 mM Trp (95% saturated)) | KD, FAD binding to BorH/Trp, ITC (BorH/Trp; BorH preincubated with Trp) | pKd (BorF)
1 | N[C@@H](Cc1c[nH]c2ccccc12)C(=O)O [Tryptophan, L-tryptophan] | ~ 80% | 100% | No product peak was observed | brominate and chlorinate | prefers chlorination over bromination |  |  | 
2 | Cc1cc2nc3c(=O)[nH]c(=O)nc-3n(C[C@H](O)[C@H](O)[C@H](O)COP(=O)(O)OP(=O)(O)OC[C@H]3O[C@@H](n4cnc5c(N)ncnc54)[C@H](O)[C@@H]3O)c2cc1C [FAD] |  |  |  |  |  | No binding was observed; also recorded: failed to detect any heat of binding; also recorded: no evidence of binding | no binding | 7.00

Reference: paper PMC11840605, “Crystallographic and Thermodynamic Evidence of Negative Coupling in the Flavin-Dependent Tryptophan Halogenases AbeH and BorH” (ACS Omega, 2025)
